Source: publication PMC5538625, “Perception of root‐active CLE peptides requires CORYNE function in the phloem vasculature” (EMBO Reports, 2017)
Where no end group is shown, it is not given here. [ ]: non-standard residue; d: D form. Hyp = O=C(O)[C@@H]1C[C@@H](O)CN1

Experiments:
[1] = test system: Arabidopsis Col-0 seedlings (primary root); assay: Root growth assay, wild type (Col-0); format: in vivo, Arabidopsis thaliana; conditions: 50 nM peptide, 9-day-old seedlings, primary root length, n ≥ 12
Description: Plant tissue culture, plant transformation, and common molecular biology procedures such as genomic DNA isolation, genotyping, sequencing, and peptide or inhibitor treatments were performed according to standard procedures as previously described 9, 19, 44, 65.
All mutant and transgenic lines were in the Arabidopsis Columbia‐0 (Col‐0) background. The following previously described mutant alleles were used throughout: brx‐2, bam3‐2, brx‐2 bam3, clv2‐1, serk1‐1 and serk1‐3, serk2‐1, serk3‐1, serk4‐1, serk5‐1 9, 47, 59, 66, 67, 68. The crn loss‐of‐function mutant allele (crn‐10) carries a single nucleotide insertion in front of the 7th codon, which leads to a frameshift and three subsequent premature stop codons after amino acid 10 52.

[2] = molecular target: T1, BAM3 extracellular (LRR) domain (30–651) (Arabidopsis thaliana, UniProt O65440); assay: biochemical; format: binding
T1 construct: azurocidin signal peptide (N); made in house; host or cells: Trichoplusia ni Tnao38 insect cells (baculovirus, secreted)
Description: Isothermal titration calorimetry assays were run on a Nano ITC (1 ml standard cell; 250 μl syringe; TA Instruments) at 25°C in 20 mM sodium citrate pH 5 and 150 mM NaCl for all ITCs with BAM3 and 10 mM Bis–Tris pH 6 and 100 mM NaCl for the ITC with PXY. […] For each experiment, 10 μl was repetitively injected into the cell in 150 s time intervals. The measured heat rates for the BAM3‐ECD vs. CLE45, BAM3^QYY vs. CLE45, BAM3‐ECD vs. Y‐CLE45, BAM3‐ECD vs. CLV3, BAM3‐ECD vs. Y‐CLV3, and PXY‐ECD vs. CLE41/44 were corrected by subtracting the heat rates measured for injecting CLE45, Y‐CLE45, CLV3, Y‐CLV3, or CLE41/44 into the ITC buffer, respectively. The data for the BAM3‐ECD + CLE45 vs. SERK1‐ECD measurement was corrected by subtracting heat rates acquired by injecting SERK1‐ECD into a cell containing CLE45. Data analyses and modeling were carried out using the software supplied by the manufacturer (NanoAnalyze, version 3.5).

[3] = molecular target: T2, BAM3 extracellular domain (BAM3-ECD) (Arabidopsis thaliana, UniProt O65440 30-651); assay: ITC; peptide titrated (10 μl injections, 150 s intervals) into the BAM3 ectodomain in the cell; Nano ITC, 25°C, 20 mM sodium citrate pH 5, 150 mM NaCl; conditions: both partners purified
T2 construct: Cloned in a modified pFastBac1 with an N-terminal azurocidin signal peptide for secretion; MALDI-TOF mass 94,586 Da; also called BAM3 LRR domain; BAM3 ectodomain; source: Trichoplusia ni Tnao38 cells, secreted, purified (Ni2+, StrepII, size-exclusion chromatography)
T2 sequence (looked up): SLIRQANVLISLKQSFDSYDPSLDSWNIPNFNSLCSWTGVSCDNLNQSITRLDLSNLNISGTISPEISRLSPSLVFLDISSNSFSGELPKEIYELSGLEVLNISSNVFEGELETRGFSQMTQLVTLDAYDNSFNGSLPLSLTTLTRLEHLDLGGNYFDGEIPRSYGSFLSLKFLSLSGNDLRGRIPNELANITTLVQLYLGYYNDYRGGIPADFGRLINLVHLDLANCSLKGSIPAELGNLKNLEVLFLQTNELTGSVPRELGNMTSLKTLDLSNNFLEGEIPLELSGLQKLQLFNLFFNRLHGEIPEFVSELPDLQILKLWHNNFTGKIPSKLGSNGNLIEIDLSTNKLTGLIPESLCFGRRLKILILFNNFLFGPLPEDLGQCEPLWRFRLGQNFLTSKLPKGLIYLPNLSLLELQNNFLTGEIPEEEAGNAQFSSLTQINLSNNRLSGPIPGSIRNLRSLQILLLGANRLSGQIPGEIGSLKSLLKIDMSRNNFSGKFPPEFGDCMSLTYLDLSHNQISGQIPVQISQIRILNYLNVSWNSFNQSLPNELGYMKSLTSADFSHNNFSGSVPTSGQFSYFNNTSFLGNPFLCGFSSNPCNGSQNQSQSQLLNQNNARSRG

[4] = molecular target: T3, BAM3^QYY extracellular domain (BAM3^QYY-ECD) (Arabidopsis thaliana, UniProt O65440 30-651, Q226A | Y228A | Y231A); assay: as above; conditions: both partners purified
T3 construct: Same construct as m1 (azurocidin signal peptide for secretion) with three point mutations; also called mutant BAM3^QYY; source: Trichoplusia ni Tnao38 cells, secreted, purified (Ni2+, StrepII, size-exclusion chromatography)
T3 sequence (looked up): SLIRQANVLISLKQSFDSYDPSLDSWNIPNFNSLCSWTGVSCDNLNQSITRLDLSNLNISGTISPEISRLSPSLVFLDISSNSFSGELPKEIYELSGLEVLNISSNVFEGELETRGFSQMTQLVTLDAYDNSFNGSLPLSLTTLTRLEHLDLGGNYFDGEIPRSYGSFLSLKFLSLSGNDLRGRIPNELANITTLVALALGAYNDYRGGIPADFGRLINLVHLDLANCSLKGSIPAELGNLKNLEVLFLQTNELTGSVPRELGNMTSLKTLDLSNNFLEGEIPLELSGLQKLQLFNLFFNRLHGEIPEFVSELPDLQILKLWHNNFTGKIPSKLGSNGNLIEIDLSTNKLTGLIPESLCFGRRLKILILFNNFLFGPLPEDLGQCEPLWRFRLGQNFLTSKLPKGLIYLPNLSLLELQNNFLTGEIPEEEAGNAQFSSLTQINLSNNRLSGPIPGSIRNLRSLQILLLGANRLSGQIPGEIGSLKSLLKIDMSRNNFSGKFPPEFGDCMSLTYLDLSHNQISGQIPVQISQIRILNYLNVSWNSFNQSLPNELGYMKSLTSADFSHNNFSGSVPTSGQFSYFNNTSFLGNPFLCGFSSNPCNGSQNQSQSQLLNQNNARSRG

[5] = molecular target: T4, BAM3^QYY extracellular domain (BAM3^QYY-ECD) (Arabidopsis thaliana, UniProt O65440 30-651, Q226A | Y228A | Y231A); assay: ITC
T4 sequence: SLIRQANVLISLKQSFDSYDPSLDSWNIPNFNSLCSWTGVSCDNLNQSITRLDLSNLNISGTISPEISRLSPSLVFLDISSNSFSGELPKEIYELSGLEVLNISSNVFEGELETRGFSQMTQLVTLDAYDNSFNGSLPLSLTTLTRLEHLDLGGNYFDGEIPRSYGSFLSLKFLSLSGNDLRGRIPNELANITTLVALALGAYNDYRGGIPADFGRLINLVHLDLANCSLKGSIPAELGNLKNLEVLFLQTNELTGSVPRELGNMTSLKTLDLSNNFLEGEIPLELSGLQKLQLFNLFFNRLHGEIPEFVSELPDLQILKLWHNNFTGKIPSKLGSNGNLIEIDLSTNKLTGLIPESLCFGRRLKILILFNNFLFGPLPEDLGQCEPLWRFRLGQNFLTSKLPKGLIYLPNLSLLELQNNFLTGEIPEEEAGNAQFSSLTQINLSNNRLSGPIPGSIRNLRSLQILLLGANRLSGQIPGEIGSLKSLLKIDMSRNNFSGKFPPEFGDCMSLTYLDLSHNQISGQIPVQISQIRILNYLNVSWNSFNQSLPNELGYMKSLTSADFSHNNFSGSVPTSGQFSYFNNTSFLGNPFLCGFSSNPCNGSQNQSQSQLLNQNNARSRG

[6] = molecular target: T5, PXY extracellular domain (PXY-ECD) (Arabidopsis thaliana, UniProt Q9FII5 30-647); assay: ITC
T5 chain: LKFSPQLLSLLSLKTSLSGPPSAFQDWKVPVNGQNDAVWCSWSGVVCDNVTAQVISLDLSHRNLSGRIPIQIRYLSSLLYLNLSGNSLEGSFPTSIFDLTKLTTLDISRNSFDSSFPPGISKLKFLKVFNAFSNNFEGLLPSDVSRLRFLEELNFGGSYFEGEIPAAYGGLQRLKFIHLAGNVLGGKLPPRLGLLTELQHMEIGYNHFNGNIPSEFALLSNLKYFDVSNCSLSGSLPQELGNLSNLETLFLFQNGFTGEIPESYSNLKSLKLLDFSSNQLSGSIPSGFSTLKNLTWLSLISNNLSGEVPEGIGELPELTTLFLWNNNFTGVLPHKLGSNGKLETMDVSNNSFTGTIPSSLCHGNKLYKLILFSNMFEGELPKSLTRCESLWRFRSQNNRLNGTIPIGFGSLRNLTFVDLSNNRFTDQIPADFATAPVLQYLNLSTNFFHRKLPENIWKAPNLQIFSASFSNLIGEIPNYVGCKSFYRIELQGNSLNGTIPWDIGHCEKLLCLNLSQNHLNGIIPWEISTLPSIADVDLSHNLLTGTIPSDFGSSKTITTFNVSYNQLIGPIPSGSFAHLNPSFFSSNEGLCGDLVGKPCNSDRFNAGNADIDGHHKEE

[7] = molecular target: T6, BAM3 extracellular domain (BAM3-ECD) (Arabidopsis thaliana, UniProt O65440 30-651); assay: ITC
T6 chain: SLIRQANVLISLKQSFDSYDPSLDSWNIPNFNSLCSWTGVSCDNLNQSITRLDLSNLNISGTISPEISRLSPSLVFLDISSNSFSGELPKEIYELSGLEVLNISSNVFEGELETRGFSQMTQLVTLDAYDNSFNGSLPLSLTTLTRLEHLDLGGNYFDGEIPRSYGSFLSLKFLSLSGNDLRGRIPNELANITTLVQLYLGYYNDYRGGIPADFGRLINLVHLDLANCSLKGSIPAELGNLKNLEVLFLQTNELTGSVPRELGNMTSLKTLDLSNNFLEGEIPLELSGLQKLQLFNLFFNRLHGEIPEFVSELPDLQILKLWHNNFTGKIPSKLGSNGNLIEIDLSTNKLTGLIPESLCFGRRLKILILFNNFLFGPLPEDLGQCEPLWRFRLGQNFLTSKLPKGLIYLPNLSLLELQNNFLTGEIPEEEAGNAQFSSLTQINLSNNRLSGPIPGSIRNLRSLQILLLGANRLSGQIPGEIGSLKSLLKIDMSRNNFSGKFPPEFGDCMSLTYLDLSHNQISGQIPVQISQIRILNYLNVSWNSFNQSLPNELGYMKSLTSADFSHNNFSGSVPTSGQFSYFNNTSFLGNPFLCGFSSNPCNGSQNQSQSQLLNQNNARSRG

RQIPTGPDPLHN [CLE18, CLE18: …]
impact on root growth [1]: significant, reproducible impact on root growth

RQVPTGSDPLHH [CLE40, CLE40: …]
impact on root growth [1]: significant, reproducible impact on root growth

RRVPTGPNPLHH [CLE8, CLE8: …]
impact on root growth [1]: significant, reproducible impact on root growth

RRVRRGSDPIHN [CLE45]
Kd [2]: 0.116 ± 0.036 µM

RSIPTGPNPLHN [CLE21, CLE21: …]
impact on root growth [1]: significant, reproducible impact on root growth

RTVPSGPDPLHH [CLV3, CLV3: …]
N (stoichiometry) ([2]; ITC, 25°C, 20 mM sodium citrate pH 5, 150 mM NaCl, ± fitting errors (95% confidence interval), n.d.: not detectable): 0.978 +/- 0.23 | reduction in binding affinity of CLV3 vs. CLE45 (fold) ([2]; ITC, Fig EV1C vs. CLE45): 70 fold | impact on root growth [1]: significant, reproducible impact on root growth

RVVPSGPNPLHH [CLE11, CLE11: …]
impact on root growth [1]: significant, reproducible impact on root growth

B1: CLE45 peptide (peptide)
peptide: RRVRRGSDPIHN
notes: CLE45, mature 12-residue CLE peptide of Arabidopsis; also called synthetic CLE45 peptide; source: synthetic peptide (Peptide Specialty Laboratories, Heidelberg)
Kd [3]: ~0.12 µM | stoichiometry N [3]: 1 | fold weaker than with the wild-type LRR domain [4]: ~8 fold | Kd [5]: 1.11 µM

B2: CLE41/44 peptide (ITC, unmodified as printed) (peptide)
peptide: HEVPSGPNPISN
notes: CLE41/44 (TDIF), mature 12-residue CLE peptide of Arabidopsis, the same from CLE41 and CLE44; The same peptide is also encoded by CLE44; also called TDIF; source: synthetic peptide (Peptide Specialty Laboratories, Heidelberg)
Kd [6]: 0.0122 µM

B3: CLV3 peptide (ITC) (peptide)
peptide: RTV[Hyp]SG[Hyp]DPLHHH
notes: CLAVATA3 (CLV3) mature CLE peptide of Arabidopsis, 13 residues as printed for the ITC; the ITC peptide is printed with three C-terminal histidines; source: synthetic peptide (Peptide Specialty Laboratories, Heidelberg)
Kd [3]: ~10 µM | Kd [7]: 8.62 µM

B4: N-terminally tyrosine-modified CLE45 peptide (Y-CLE45) (peptide)
peptide: YRRVRRGSDPIHN
Kd [7]: 12.7 µM
